Assay results reported in US11732264B2, “Compositions and methods for treating COVID-19” (Vast Sea Biotechnology, Inc., priority 2020, dated 2023).
d = 2'-deoxy (DNA); r = 2'-OH (RNA)

Key:
Format in all cases: cell-based
[1] = system: human primary lung small airway epithelial cells (HSAEC); test: FACS detection of intercellular delivery of oligos in HSAEC; conditions: for cells with intercellular signals of the oligos, Arginine compared with lipofectamine (FACS): 10 ul/well Arginine vs lipofectamine
[2] = system: Human Primary Nasal Epithelial Cells; test: Fluorescence microscopy of oligo entry into HNEpC; conditions: 24-48 hours, fluorescent filter 10x/20x, delivery per FIG. 35
[3] = system: primary human lung small airway epithelial cells; test: Fluorescence microscopy of oligo entry into HSAEC; conditions: 24-48 hours, fluorescent filter 10x/20x, lipofectamine, poly-arginine or no reagent per FIG. 1
[4] = system: primary human lung bronchial/tracheal epithelial cells; test: Fluorescence microscopy of oligo entry into HBTEC; conditions: 24-48 hours, fluorescent filter 10x/20x, delivery per FIG. 20

Row | Substance | cells with intercellular signals of the oligos, Arginine compared with lipofectamine (FACS) [1] | intensities of fluorescent signals in cells (FACS) vs no-treatment control ([1]; Arginine only (10 ul/well)) | intensities of fluorescent signals in cells (FACS) vs no-treatment control ([1]; with lipofectamine) | entry into cells, microscopic analysis [2] | entry into cells, microscopic analysis [3] | entry into cells, microscopic analysis [4] | intensities of fluorescent signals in cells (FACS) vs no-treatment control ([1]; without lipofectamine or Arginine reagents)
1 | TGTTAATTGGAACGCCTTGTC (Cy3 label, position not given here) [VS_ASO_2-Cy3] | more cells with intercellular signals of the oligos | significantly higher | significantly higher | – | – | – | –
2 | VS_DsiRNA-Cy5: DsiRNA SEQ ID NOs: 23 & 24, target N-protein, Cy5 labeled (chain 1 AAACUAAAAUGUCUGAUAAUGGACC; chain 2 GGUCCAUUAUCAGACAUUUUAGUUUGU; chain 1: sugars from the 5' end r23 d2, backbone not given here; chain 2: chemistry not given here; Cy5 label) | more cells with intercellular signals of the oligos | significantly higher | significantly higher | can enter epithelial cells | entry | entry | –
3 | TGTTAATTGGAACGCCTTGTC (FANA modified, pattern not given here, FITC label) [VS_ASO_1-FANA-FITC] | – | – | – | can enter epithelial cells | entry | entry | significantly stronger
